From patent US20200071326A1, “TAM KINASE INHIBITORS” (Syros Pharmaceuticals, Inc., priority 2017, published 2020)
Where a name gives a salt, the structure may show the parent alone.

Legend:
MERTK = biological target: T1, MERTK (Homo sapiens, UniProt Q12866); experiment: IMAP fluorescence polarization kinase assay, MERTK; format: biochemical; details: ATP 2.69 μM, enzyme 1.5 nM, 240 minutes, read-out: MERTK inhibitory constant (Ki)
T1 sequence (Q12866 21-999): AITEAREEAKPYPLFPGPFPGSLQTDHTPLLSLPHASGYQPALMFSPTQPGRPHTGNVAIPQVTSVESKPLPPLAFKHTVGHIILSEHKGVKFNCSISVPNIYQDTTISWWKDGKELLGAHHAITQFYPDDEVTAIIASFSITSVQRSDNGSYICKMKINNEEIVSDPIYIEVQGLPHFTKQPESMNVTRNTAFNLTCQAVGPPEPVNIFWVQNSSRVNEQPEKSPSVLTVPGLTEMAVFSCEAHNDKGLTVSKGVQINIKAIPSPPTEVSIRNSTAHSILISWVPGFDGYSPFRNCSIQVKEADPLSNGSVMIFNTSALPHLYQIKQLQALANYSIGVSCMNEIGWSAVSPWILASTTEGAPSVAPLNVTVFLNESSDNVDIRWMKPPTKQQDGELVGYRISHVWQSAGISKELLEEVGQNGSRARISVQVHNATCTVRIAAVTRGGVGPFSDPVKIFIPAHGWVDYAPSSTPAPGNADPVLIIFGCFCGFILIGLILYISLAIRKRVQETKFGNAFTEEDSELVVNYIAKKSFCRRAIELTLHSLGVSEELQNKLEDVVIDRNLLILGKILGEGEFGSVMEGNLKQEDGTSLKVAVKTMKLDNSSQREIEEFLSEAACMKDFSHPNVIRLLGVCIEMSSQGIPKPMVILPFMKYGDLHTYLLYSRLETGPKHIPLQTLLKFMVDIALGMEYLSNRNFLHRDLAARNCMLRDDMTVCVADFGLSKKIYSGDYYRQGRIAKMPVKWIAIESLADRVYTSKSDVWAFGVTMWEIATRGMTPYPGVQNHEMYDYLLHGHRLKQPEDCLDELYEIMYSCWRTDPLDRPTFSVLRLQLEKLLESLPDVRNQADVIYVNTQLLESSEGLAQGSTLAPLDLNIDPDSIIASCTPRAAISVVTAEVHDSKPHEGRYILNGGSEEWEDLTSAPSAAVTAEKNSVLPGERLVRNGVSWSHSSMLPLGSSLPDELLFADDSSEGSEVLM
Description: (§1) Activities of compounds against each of TYRO3, AXL, and MERTK as well as against FLT3, were determined using an immobilized metal ion affinity-based fluorescence polarization (“IMAP”) assay. A fluorescently-labeled substrate peptide was phosphorylated in the kinase reaction, after which a binding solution containing large trivalent metal-based nanoparticles was added and the phosphorylated substrate binds to these beads. This reduces the rotational speed of the substrate which is then detected using fluorescence polarization as a read-out.
(§2) The substrates used for each enzyme are as follows: AXL: 5F1-KKKKEEIYFFFG-NH2(SEQ ID NO:1); FLT3: 5F1-KKKKEEIYFFF-NH2 (SEQ ID NO:2); MERTK: 5F1-EFPIYDFLPAKKK-NH2 (SEQ ID NO:3); and TYRO3: 5F1-EFPIYDFLPAKKK-NH2 (SEQ ID NO:4).
(§3) This assay was performed in a 384-well, polystyrene microplate in a final volume of 8 μl. Substrate (final concentration=400 nM), ATP (final concentrations=24.7μM for AXL; 2.74 μM for FLT3; 2.69 μM for MERTK; and 54.0 μM for TYRO3), compounds and enzyme (final concentrations=2.5 nM for AXL, FLT3 and TYRO3; 1.5 nM for MERTK) were pipetted in this order into the appropriate reaction buffer (AXL: 50 mM HEPES, pH 8.0, 1 mM DTT, 10 mM MgCl2, 0.01% BRU35, 0.01% Triton X-100; FLT3: 50 mM HEPES, pH 8.0, 1 mM DTT, 10 mM MgCl2, 0.01% Triton X-100, 0.01% NP40; MERTK/TYRO3: 50 mM HEPES, pH 8.0, 1 mM DTT, 10 mM MgCl2, 0.01% Triton X-100) and incubated at room temperature for varying times (AXL, FLT3 and MERTK: 240 minutes; TYRO3: 60 minutes). IMAP binding solution was then dispensed, the plate incubated for 60 minutes at room temperature and the fluorescence polarization measured. Data were analyzed using XLfit.

TYRO3 = biological target: T2, TYRO3 (Homo sapiens, UniProt Q06418); experiment: IMAP fluorescence polarization kinase assay, TYRO3; format: biochemical; details: ATP 54.0 μM, enzyme 2.5 nM, 60 minutes, read-out: TYRO3 inhibitory constant (Ki)
T2 sequence (Q06418 41-890): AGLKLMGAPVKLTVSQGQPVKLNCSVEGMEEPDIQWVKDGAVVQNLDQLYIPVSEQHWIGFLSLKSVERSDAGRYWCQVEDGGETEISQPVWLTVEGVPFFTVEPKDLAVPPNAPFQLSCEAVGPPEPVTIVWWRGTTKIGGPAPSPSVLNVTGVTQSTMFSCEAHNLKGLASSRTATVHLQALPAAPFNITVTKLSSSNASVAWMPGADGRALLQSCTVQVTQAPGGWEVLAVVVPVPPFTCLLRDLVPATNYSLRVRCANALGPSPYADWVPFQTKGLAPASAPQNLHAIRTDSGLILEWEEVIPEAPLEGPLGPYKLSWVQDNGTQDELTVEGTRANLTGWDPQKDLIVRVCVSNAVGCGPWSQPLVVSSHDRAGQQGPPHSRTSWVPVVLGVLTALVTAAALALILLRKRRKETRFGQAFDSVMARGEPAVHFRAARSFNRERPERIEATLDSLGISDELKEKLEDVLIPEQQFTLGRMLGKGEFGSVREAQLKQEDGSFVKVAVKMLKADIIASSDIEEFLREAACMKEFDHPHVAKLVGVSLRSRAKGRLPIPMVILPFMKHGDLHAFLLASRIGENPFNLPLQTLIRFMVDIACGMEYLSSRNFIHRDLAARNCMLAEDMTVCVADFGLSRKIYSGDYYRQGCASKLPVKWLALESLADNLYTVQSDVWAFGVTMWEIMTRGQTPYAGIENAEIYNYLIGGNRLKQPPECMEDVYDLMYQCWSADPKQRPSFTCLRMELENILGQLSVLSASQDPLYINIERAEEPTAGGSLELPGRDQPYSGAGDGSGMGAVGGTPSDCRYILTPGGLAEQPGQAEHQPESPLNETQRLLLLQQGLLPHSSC
Description: as §1, §2, §3

Structure (SMILES) | Ki (MERTK) | Ki (TYRO3)
Cc1cc2c(N[C@H]3CC[C@H](N)CC3)c(C(=O)Nc3ccc(F)cc3)cnc2[nH]1 [Compound 103] | < 100 nM | 1000 to 10000 nM
CCCc1cc2c(N[C@H]3CC[C@H](N)CC3)c(-c3cnn(C)c3)cnc2[nH]1 [Compound 108, (1r,4r)-N1-(5-(1-methyl-1H-pyrazol-4-yl)-2-propyl-1H-pyrrolo[2,3-b]pyridine-4-yl)cyclohexane-1,4-diamine hydrochloride] | < 100 nM | < 100 nM
CCCc1cc2c(N[C@H]3CC[C@H](O)CC3)c(-c3ccc(CNCC45C[C@H]6C[C@@H](C4)C[C@@H](C5)C6)cn3)cnc2[nH]1 [Compound 109] | < 100 nM | < 100 nM
CCCc1cc2c(N[C@H]3CC[C@H](N)CC3)c(-c3cc(NC)ncn3)cnc2[nH]1 [Compound 111, (1r,4r)-N^1-(5-(6-(methylamino)pyrimidin-4-yl)-2-propyl-1H-pyrrolo[2,3-b]pyridine-4-yl)cyclohexane-1,4-diamine hydrochloride] | < 100 nM | < 100 nM
CCCc1cc2c(N[C@H]3CC[C@H](N)CC3)c(-c3cc(NC(C)C)ncn3)cnc2[nH]1 [Compound 112] | < 100 nM | < 100 nM
CCCc1cc2c(N[C@H]3CC[C@H](N)CC3)c(-c3ccccn3)cnc2[nH]1 [Compound 113] | < 100 nM | < 100 nM
CCCc1cc2c(N[C@H]3CC[C@H](N)CC3)c(-c3ccc(F)cn3)cnc2[nH]1 [Compound 114] | < 100 nM | < 100 nM
CCCc1cc2c(N[C@H]3CC[C@H](N)CC3)c(-c3ccc(S(=O)(=O)N4CCOCC4)cn3)cnc2[nH]1 [Compound 115] | < 100 nM | < 100 nM
CCCc1cc2c(N[C@H]3CC[C@H](N)CC3)c(-c3cc(N)ncn3)cnc2[nH]1 [Compound 116] | < 100 nM | < 100 nM
CCCc1cc2c(N[C@H]3CC[C@H](N)CC3)c(-c3nccs3)cnc2[nH]1 [Compound 117] | < 100 nM | < 100 nM
CCCc1cc2c(N[C@H]3CC[C@H](N)CC3)c(-c3ccnc(N4CCCC4)n3)cnc2[nH]1 [Compound 118, (1r,4r)-N1-(2-propyl-5-(2-(pyrrolidin-1-yl)pyrimidin-4-yl)-1H-pyrrolo[2,3-b]pyridine-4-yl)cyclohexane-1,4-diamine hydrochloride] | < 100 nM | < 100 nM
CCCc1cc2c(N[C@H]3CC[C@H](N)CC3)c(-c3ccc(N)cn3)cnc2[nH]1 [Compound 120] | < 100 nM | < 100 nM
CCCc1cc2c(N[C@H]3CC[C@H](N)CC3)c(-c3cc(OC)ncn3)cnc2[nH]1 [Compound 122] | < 100 nM | < 100 nM
CCCc1cc2c(N[C@H]3CC[C@H](N)CC3)c(-c3ccnc(N)n3)cnc2[nH]1 [Compound 123] | < 100 nM | < 100 nM
CCCc1cc2c(N[C@H]3CC[C@H](N)CC3)c(C(=O)NC3CCOCC3)cnc2[nH]1 [Compound 124] | < 100 nM | < 100 nM
CCCc1cc2c(N[C@H]3CC[C@H](N)CC3)c(-c3ccc(C)nn3)cnc2[nH]1 [Compound 127] | < 100 nM | < 100 nM

Other lines, results leading:

Ki (MERTK) | Ki (TYRO3) | Structure (SMILES)
< 100 nM | < 100 nM | CCCc1cc2c(N[C@H]3CC[C@H](N)CC3)c(C(=O)Nc3ccc(F)cc3)cnc2[nH]1 [Compound 100, 4-(((1r,4r)-4-aminocyclohexyl)amino)-N-(4-fluorophenyl)-2-propyl-1H-pyrrolo [2,3-b]pyridine-5-carboxamide hydrochloride]
100 to 1000 nM | 100 to 1000 nM | CCCc1cc2c(N[C@H]3CC[C@H](O)CC3)c(C(=O)Nc3ccc(F)cc3)cnc2[nH]1 [Compound 101]
< 100 nM | < 100 nM | CCCc1cc2c(N[C@H]3CC[C@H](O)CC3)c(C(=O)NCc3ccc(-n4ccnc4)cc3)cnc2[nH]1 [Compound 102]
< 100 nM | < 100 nM | CCCc1cc2c(N[C@H]3CC[C@H](O)CC3)c(C(=O)NC3CCN(c4ncccn4)CC3)cnc2[nH]1 [Compound 104]
< 100 nM | < 100 nM | CCCc1cc2c(N[C@H]3CC[C@H](O)CC3)c(-c3ccc(CN4CCOCC4)cn3)cnc2[nH]1 [Compound 105]
100 to 1000 nM | 100 to 1000 nM | CCCc1cc2c(N[C@H]3CC[C@H](O)CC3)c(-c3ccc(CN4CCOCC4)cc3)cnc2[nH]1 [Compound 106, (1r,4r)-4-((5-(4-(morpholinomethyl)phenyl)-2-propyl-1H-pyrrolo[2,3-b]pyridin-4-yl)amino)cyclohexanol hydrochloride]
100 to 1000 nM | 100 to 1000 nM | CCCc1cc2c(N[C@H]3CC[C@H](O)CC3)c(-c3cnn(CCN(C)C)c3)cnc2[nH]1 [Compound 107]
< 100 nM | < 100 nM | N[C@H]1CC[C@H](Nc2c(C(=O)NCc3ccc(-n4ccnc4)cc3)cnc3[nH]c(-c4ccccc4)cc23)CC1 [Compound 110]
< 100 nM | < 100 nM | CCc1cc2c(N[C@H]3CC[C@H](N)CC3)c(C(=O)NCc3ccc(-n4ccnc4)cc3)cnc2[nH]1 [Compound 119, N-(4-(1H-imidazol-1-yl)benzyl)-4-(((1r,4r)-4-aminocyclohexyl)amino)-2-ethyl-1H-pyrrolo[2,3-b]pyridine-5-carboxamide]
< 100 nM | < 100 nM | CCCc1cc2c(N[C@H]3CC[C@H](N)CC3)c(C(=O)NCc3ccc(-n4ccnc4)cc3)cnc2[nH]1 [Compound 121]
< 100 nM | < 100 nM | CCCc1cc2c(N[C@H]3CC[C@H](O)CC3)c(-c3ccc(CN4CCCC4)cn3)cnc2[nH]1 [Compound 125]
< 100 nM | < 100 nM | N[C@H]1CC[C@H](Nc2c(C(=O)NCc3ccc(-n4ccnc4)cc3)cnc3[nH]c(C4CCCC4)cc23)CC1 [Compound 126]
